Measurements as given in paper PMC8538004, “Identification of a Novel Neuropeptide S Receptor Antagonist Scaffold Based on the SHA-68 Core” (Pharmaceuticals, 2021).
Entries after “also recorded” stand apart in the source; their conditions may differ.

How the values were obtained:
[1] = target: T1, human NPSR-107I (Homo sapiens, UniProt Q6W5P4, N107I); assay: Ca+2 mobilization assay (apparent Ke against NPS); assay type: cell-based
T1 construct: expressed in transfected cells
T1 sequence (Q6W5P4 1-371 N107I): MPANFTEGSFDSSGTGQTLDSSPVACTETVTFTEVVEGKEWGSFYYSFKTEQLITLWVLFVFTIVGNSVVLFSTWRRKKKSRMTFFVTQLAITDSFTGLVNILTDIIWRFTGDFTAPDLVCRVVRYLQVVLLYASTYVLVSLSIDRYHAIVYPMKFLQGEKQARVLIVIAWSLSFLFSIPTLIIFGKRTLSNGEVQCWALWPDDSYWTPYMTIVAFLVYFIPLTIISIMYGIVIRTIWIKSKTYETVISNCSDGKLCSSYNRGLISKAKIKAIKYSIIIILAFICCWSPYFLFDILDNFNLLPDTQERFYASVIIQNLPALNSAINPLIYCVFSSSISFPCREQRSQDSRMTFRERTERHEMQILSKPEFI
Protocol: A stable cell line overexpressing the human NPSR-107I was created in CHO-Gαq16 cells (RD-HGA16, Molecular Devices), as previously described. Briefly, CHO-Gαq16 cells were transfected with pcDNA 3.1 human NPSR-107I using Lipofectamine reagent. Transfected cells were plated into 10 cm^2 dishes 24 h post-transfection and were selected using Geneticin. After 2 weeks, individual clones were selected, grown to confluence, and screened in a functional 96-well calcium mobilization assay that measured the response to NPS (100 nM final). […] A final working clone was chosen for all subsequent studies based on NPS potency and the calcium mobilization signal window. CHO-Gα16-hNPSR-107I cells were cultured in Ham’s F12 media supplemented with 10% FBS, 100 units/mL penicillin, 100 μg/mL streptomycin, 200 μg/mL hygromycin, and 400 μg/mL geneticin. Media were purchased from HyClone (GE Life Sciences); FBS, penicillin/streptomycin, hygromycin, and geneticin were purchased from Invitrogen (Thermo Scientific). The day before the assay, cells were plated into 96-well black-walled assay plates at 25,000–40,000 cells/well in growth medium without selection antibiotics. Cells were incubated overnight at 37 °C, 5% CO2. The FLIPR Calcium 5 assay kit (Molecular Devices) was used according to the manufacturer’s instructions with minor modifications. Briefly, reconstituted dye was diluted in pre-warmed assay buffer (HBSS, 20 mM HEPES, 2.5 mM probenecid, pH 7.4 at 37 °C). Growth medium was removed, and the cells were gently washed with assay buffer. Calcium 5 dye was added to the cells and the plate was incubated for 45 min at 37 °C, 5% CO2. A single concentration of test compound and 10-point concentration–response curves of NPS (ranging from 100 nM to 1 pM) were prepared at 10× the desired final concentration. Cells were pretreated with the test compound or vehicle in a final concentration of 0.25% BSA/1% DMSO for 15 min at 37 °C. Assay plates were read with a FlexStation II instrument (excitation at 485 nm, detection at 525 nm, Molecular Devices). Calcium-mediated changes in fluorescence were monitored every 1.5 s over a 90 s time period. NPS was added during the read and the maximum kinetic […] (SoftMax [Max-Min], Molecular Devices) in relative fluorescent units (RFU) was measured. Data were fitted to a three-parameter logistic curve to generate EC50 values (GraphPad Prism 6.0). Antagonism was quantified by measuring the ratio of equi-active concentrations of agonist measured in the presence or absence of the antagonist. Apparent Ke values were calculated using the equation Ke = [L]/((EC50^+/EC50^−) − 1), where [L] is the concentration of test compound, EC50^+ is the EC50 of NPS with test compound, and EC50^– is the EC50 of NPS alone. Ke values were considered valid when the EC50^+/EC50^− ratio was at least 4. HBSS and HEPES were purchased from Gibco (Thermo Scientific); probenecid, BSA, and DMSO were purchased from Sigma-Aldrich.

[2] = test system: NPS-mediated hyperlocomotion; assay: NPS-stimulated locomotor activity (open field); assay type: in vivo, C57/Bl6 mice
Protocol: Male mice between 8 and 12 weeks of age were used for all tests. C57/Bl6 were obtained from the former NCI colony maintained by Charles River. Animals were housed with ad libitum access to food and water on a 12:12 h light:dark cycle with lights on at 06:00. Experiments were conducted between the hours of 09:00 and 15:00. All experiments were approved by the Institutional Animal Care and Use Committee of the State University of New York at Buffalo (PMY09073N) and conducted in accordance with the National Institutes of Health Guide for the Care and Use of Laboratory animals.
Mice were anesthetized using ketamine (100 mg/kg) and xylazine (5 mg/kg) and were secured to a stereotaxic frame once the appropriate plane of anesthesia was reached. An incision was made in order to expose the skull. […]
Open-field testing was conducted in clear plexiglass cages measuring 40 × 40 cm^2 interfaced by a grid array of infrared beams connected to a computer system which tracked and quantified the animals’ location and movements (OMNITECH Instruments, Columbus, OH, USA). […]
Statistical analyses were performed by ANOVA with Tukey’s multiple comparisons test analysis within GraphPad Prism 8 software (GraphPad Software, San Diego, CA, USA). All results are expressed as mean values ± SEM.

Shift of the agonist activity of NPS ([1]; 3 µM concentration, calcium mobilization assay): significant right shift
Kb ([1]; Calcium Mobilization, CHO-Gα16-hNPSR-107I cells, shift of NPS EC50): 71.4 nM
Potency relative to SHA-68 ([1]; in vitro antagonist potency): approximately sevenfold less potent
SMILES: CC(C)CC1(c2ccccc2)OC(=O)C2=C1CN(C(=O)NCc1ccccc1)CC2 (single isomer, unassigned; (+)) [Compound 14b, (+) N-benzyl-3-(2-methylpropyl)-1-oxo-3-phenyl-1H,3H,4H,5H,6H,7H-furo[3,4-c]pyridine-5-carboxamide]
Effect on NPS-mediated hyperlocomotion ([2]; 3 mg/kg i.p. pretreatment, NPS 0.3 nmol ICV, total distance first 10 min, Veh-NPS vs. 14b-NPS p = 0.0389): attenuated; also recorded: able to block; also recorded: sufficient to significantly decrease; also recorded: significantly decreased
Effect on locomotion on its own ([2]; 3 mg/kg i.p., aCSF ICV, Veh-aCSF vs. 14b-aCSF p = 0.8199): did not decrease locomotion
